Earlier results in patent US10359349B2, “Use of focused light scattering techniques in biological applications” (AIDIA INVESTMENT GROUP, INC., priority 2008, dated 2019).

Tested on: platelets
Conditions: platelet inhibition in arterial thrombophilic diseases; share of drug-treated patients whose platelets are not inhibited

Structure (SMILES)	treated patients who do not respond to treatment
COC(=O)[C@H](c1ccccc1Cl)N1CCc2sccc2C1 [Plavix, clopidogrel bisulfate]	~29%
CC(=O)Oc1ccccc1C(=O)O [ASA, Aspirin]	Approximately 25%
